Source: ChEMBL document CHEMBL5678803, “Selective blockade of TRPA1 channel attenuates pathological pain without altering noxious cold sensation or body temperature regulation” (Pain, 2011)

Assays:
[1] = molecular target: T1, Transient receptor potential cation channel subfamily A member 1 (Homo sapiens, UniProt O75762); assay: Antagonist activity at recombinant human TRPA1 expressed in HEK293F cells assessed as reduction in AITC-induced increase in intracellular Ca2+ level by FLIPR-based Ca2+ assay; format: cell-based
[2] = molecular target: Cannabinoid receptor 2 (Homo sapiens) (UniProt P34972); assay: Inhibition of CB2 receptor (unknown origin) at 10 micromol/L by radioligand binding assay relative to control; conditions: dose 10.0 µmol/L
[3] = molecular target: Transient receptor potential cation channel subfamily A member 1 (Rattus norvegicus, UniProt Q6RI86); assay: Antagonist activity at rat TRPA1 expressed in HEK293F cells assessed as reduction in AITC-induced increase in intracellular Ca2+ level by FLIPR-based Ca2+ assay; format: cell-based
Homo sapiens [4] = species: Homo sapiens; assay: Inhibition of sodium channel (unknown origin) at 10 micromol/L by radioligand binding assay relative to control; conditions: dose 10.0 µmol/L
Homo sapiens [5] = species: Homo sapiens; assay: Inhibition of sigma receptor (unknown origin) at 10 micromol/L by radioligand binding assay relative to control; conditions: dose 10.0 µmol/L
Rattus norvegicus [6] = assay: Antiallodynic activity in CFA-induced mechanical allodynia Sprague-Dawley rat model assessed as attenuation of mechanical allodynia at 100 mg/kg, po administered with compound for 1 hrs and measured 48 hrs after CFA injection relative to control; format: functional; conditions: time 49 hrs
Rattus norvegicus [7] = assay: Antiallodynic activity in CCI-induced neuropathic pain Sprague-Dawley rat model assessed as attenuation of mechanical allodynia at 100 mg/kg, po administered with compound for 1 hrs and measured 10 to 14 days after surgery relative to control; format: functional; conditions: time 241-337 hrs
Rattus norvegicus [8] = assay: Antiallodynic activity in spinal nerve ligation-induced neuropathic pain Sprague-Dawley rat model assessed as attenuation of mechanical allodynia at 100 mg/kg, po administered with compound for 1 hrs and measured 10 to 14 days after surgery relative to control; format: functional; conditions: time 241-337 hrs
[9] = Toxicity in Sprague-Dawley rat assessed as increase in body temperature at 3.88 mg/kg, po measured after 480 mins by radiotelemetric analysis; format: organism-based; conditions: in vivo, 8 h
[10] = Toxicity in Sprague-Dawley rat assessed as increase in body temperature at 1.16 mg/kg, po measured after 480 mins by radiotelemetric analysis; format: organism-based; conditions: in vivo, 8 h
[11] = Toxicity in Sprague-Dawley rat assessed as effect on tail withdrawal latency to hot water immersion at 55 degreeC at 11.6 mg/kg, po by tail immersion test; format: organism-based; conditions: in vivo
[12] = molecular target: T1, Transient receptor potential cation channel subfamily A member 1; assay: Antagonist activity at TRPA1 (unknown origin)

T1 sequence (O75762 whole entry): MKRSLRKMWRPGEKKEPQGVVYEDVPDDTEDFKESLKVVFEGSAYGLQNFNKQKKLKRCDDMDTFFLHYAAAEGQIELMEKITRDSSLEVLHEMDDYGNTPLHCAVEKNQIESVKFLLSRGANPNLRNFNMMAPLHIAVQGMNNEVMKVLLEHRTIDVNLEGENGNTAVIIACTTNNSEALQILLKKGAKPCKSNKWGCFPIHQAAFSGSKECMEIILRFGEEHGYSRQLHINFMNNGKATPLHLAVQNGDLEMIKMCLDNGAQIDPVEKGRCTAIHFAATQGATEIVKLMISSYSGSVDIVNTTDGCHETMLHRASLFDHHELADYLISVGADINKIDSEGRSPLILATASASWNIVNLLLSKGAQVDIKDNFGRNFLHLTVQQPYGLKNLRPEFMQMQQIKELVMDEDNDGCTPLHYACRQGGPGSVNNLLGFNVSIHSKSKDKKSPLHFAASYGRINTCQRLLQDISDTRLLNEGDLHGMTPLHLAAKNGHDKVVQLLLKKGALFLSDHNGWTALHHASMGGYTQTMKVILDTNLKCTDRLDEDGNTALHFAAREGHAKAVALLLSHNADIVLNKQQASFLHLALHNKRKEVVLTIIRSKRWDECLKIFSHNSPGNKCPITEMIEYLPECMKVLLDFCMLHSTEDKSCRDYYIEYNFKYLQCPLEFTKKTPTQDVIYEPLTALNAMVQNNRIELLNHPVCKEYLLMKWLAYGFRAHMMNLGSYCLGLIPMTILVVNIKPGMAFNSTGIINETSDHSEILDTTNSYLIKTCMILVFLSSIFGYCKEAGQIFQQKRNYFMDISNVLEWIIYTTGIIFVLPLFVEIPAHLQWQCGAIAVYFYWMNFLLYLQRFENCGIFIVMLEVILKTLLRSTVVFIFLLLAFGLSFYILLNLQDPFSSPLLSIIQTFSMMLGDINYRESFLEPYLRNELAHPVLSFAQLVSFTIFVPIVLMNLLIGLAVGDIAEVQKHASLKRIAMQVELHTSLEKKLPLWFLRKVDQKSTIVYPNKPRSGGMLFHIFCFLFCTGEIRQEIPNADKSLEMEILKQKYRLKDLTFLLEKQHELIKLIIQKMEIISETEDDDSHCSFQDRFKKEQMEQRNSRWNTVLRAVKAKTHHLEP
Chain of Transient receptor potential cation channel subfamily A member 1 (Rattus norvegicus, UniProt Q6RI86) (Q6RI86 whole entry): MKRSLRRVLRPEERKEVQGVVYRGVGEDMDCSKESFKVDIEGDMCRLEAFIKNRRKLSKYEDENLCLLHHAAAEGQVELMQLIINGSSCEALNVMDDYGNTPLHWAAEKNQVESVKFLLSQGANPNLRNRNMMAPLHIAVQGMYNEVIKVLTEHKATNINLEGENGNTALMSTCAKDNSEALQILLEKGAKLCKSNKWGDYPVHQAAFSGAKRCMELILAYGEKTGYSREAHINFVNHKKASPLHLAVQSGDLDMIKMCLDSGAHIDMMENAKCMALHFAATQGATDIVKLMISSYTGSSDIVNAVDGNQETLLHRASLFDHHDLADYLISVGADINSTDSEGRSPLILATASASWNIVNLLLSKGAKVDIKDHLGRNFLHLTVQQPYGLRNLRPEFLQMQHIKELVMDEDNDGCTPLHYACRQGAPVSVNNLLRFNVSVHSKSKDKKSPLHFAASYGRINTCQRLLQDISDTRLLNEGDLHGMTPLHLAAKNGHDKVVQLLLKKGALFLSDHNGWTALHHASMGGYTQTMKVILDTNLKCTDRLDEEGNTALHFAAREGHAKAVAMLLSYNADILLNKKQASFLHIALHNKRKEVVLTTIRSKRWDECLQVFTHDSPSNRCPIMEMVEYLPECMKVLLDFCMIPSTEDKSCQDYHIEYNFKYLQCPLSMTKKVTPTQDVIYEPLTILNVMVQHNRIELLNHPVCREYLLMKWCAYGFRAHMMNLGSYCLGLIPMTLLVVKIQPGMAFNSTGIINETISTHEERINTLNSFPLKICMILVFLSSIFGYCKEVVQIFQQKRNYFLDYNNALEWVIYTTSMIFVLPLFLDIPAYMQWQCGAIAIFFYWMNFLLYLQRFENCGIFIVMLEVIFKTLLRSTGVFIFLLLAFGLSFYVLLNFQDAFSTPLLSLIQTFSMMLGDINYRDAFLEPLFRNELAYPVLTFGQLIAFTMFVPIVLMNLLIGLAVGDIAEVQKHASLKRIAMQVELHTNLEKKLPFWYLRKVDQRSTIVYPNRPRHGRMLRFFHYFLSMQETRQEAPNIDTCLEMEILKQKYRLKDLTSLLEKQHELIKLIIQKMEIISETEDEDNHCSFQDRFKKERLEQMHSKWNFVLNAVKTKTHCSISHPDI
Chain of Cannabinoid receptor 2 (Homo sapiens) (P34972 whole entry): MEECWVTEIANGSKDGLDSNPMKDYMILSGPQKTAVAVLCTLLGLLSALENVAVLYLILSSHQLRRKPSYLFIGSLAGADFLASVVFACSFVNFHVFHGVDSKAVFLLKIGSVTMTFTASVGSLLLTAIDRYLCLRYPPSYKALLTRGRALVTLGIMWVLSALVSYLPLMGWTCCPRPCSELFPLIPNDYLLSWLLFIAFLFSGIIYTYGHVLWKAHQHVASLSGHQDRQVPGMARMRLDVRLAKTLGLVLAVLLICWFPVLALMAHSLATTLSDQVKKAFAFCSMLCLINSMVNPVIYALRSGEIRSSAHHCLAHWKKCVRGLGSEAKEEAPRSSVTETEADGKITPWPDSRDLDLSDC

**Q.** Which results are given for `CC(C)c1ccc(NC(=O)Cn2cnc3c2c(=O)n(C)c(=O)n3C)cc1`?
**A.** IC50 [1]: 6.9 µM; inhibition [2]: 33%; IC50 [3]: 6.9 µM; inhibition (Homo sapiens [4]): 40%; inhibition (Homo sapiens [5]): 37%

**Q.** Which Activity (Rattus norvegicus [6]) does the source give for `NCC1(CC(=O)O)CCCCC1` [GABAPENTIN] here?
**A.** 50%

**Q.** And the Activity (Rattus norvegicus [7])?
**A.** 50%

**Q.** And the Activity (Rattus norvegicus [8])?
**A.** 50%

**Q.** For `Cc1nc(Nc2cccc3c2C[C@H](O)CC3)oc1-c1ccc(C(F)(F)F)cc1`, which deltaT [9] is on record?
**A.** 0.9 °C

**Q.** What about the deltaT [10] of the same molecule?
**A.** 0.6 °C

**Q.** And the Activity [11]?
**A.** Toxic

**Q.** Which IC50 [1] does the source give for `CC(=N/O)/C(C)=C/c1ccc(Cl)cc1` here?
**A.** 6.9 µM

**Q.** And the IC50 [3]?
**A.** 8.8 µM

**Q.** What about the IC50 [12] of the same molecule?
**A.** 3.1 µM
